Legend:
[1] = system: Foxtail; experiment: Upland pot test, pre-/post-emergence spray, visual rating; format: in vivo, green foxtail (SETVI); settings: 2 weeks after spray, 0-10 scale (10=completely killed)
Text: (§1) To a rectangular plastic pot having a surface area of 300 cm^2, mixed soils including blend bed soil (Boonong, Horticultural Bed Soil No. 3) and sandy loam soil were filled (mixing ratio, 1:1). Seeds of the eight different types of weeds including gramineous weed such as barnyardgrass, large crabgrass, green foxtail, fall panicum, and broadleaf weed such as common cocklebur, velvetleaf, Indian joint-vetch, and morningglory were sown. To the other pot containing the same soil mixture, seeds of the five different types of crops including corn, soybean, cotton, wheat and rice were sown. Pots were kept in a greenhouse of which temperature was maintained at 25˜30° C. (day) or 15˜25° C. (night), and regularly watered.
(§2) After fourteen days and when the crops and the weeds reached their three-leaf stage, the other set of a crop pot and a weed pot were prepared by the same method as described above. Then, “test substance” was sprayed thereto. In this case, spray treatment to the plants after they have grown for two weeks corresponded to post-emergence treatment while spray treatment to the seeds right after the sowing corresponded to pre-emergence treatment. Spray was carried out by using a track sprayer (R&D Sprayer, USA) equipped with a Teejet 8002 nozzle (Spraying Systems Co., USA). Spray volume was adjusted to 300 L/ha. The spray solution was prepared by dissolving the “test substance” in acetone and adding the same volume of 0.2% (v/v) Tween 20 aqueous solution. Dosage of the test substance was 500, 250, 125, 62.5 or 31.3 g/ha. Two weeks after the spray of the test substance, efficacy and phytotoxic effect to the crops and the weeds were visually measured based on a 0 to 10 scale (0: no efficacy, 10: completely killed).

[2] = system: Fall panicum; experiment: as above; format: in vivo, fall panicum (PANDI); settings: 2 weeks after spray, 0-10 scale (10=completely killed)
Text: as §1, §2

[3] = system: Large crabgrass; experiment: as above; format: in vivo, large crabgrass (DIGSA); settings: 2 weeks after spray, 0-10 scale (10=completely killed)
Text: as §1, §2

[4] = system: Cocklebur; experiment: as above; format: in vivo, common cocklebur (XANST); settings: 2 weeks after spray, 0-10 scale (10=completely killed)
Text: as §1, §2

[5] = system: all the tested gramineous weeds; experiment: Example 3-1, gramineous weeds as a group; format: in vivo, large crabgrass, annual bluegrass, goosegrass; settings: PRE and POST timings, 0.25 kg/ha to 4 kg/ha
Text: Commercially available sod mats of zoysiagrass and bentgrass, Kentucky bluegrass, and perennial ryegrass were purchased. After cutting each turf sod mat in a size of 10 cm×20 cm, it was transplanted to a rectangular plastic pot having a surface area of 300 cm^2 wherein mixed soils including blend of a bed soil (Boonong, Horticultural Nursery Soil No. 3) and sandy loam soil were filled (mixing ratio, 1:1). After transplanting, the grass was mowed (0.5˜1.0 cm in height) once a week, and kept for one month in a greenhouse maintained at 25˜30° C. (day) or 15˜25° C. (night). Then three strips of 1 cm width were removed by excision with a scissor. The open space was filled with a new soil, and seeds of large crabgrass, annual bluegrass, or goosegrass were sown. The pots were kept in a greenhouse. When the said weeds were grown up to the 3 leaf stage, another set was prepared in the same method. The first set represented post-emergence (POST) and the second set represented pre-emergence (PRE) stages of the weeds (large crabgrass, annual bluegrass, goosegrass). Then the test compound was applied at 0.25, 0.5. 1.0, 2.0, and 4.0 kg/ha. […] Four weeks after the spray of the test substance, phytotoxicity to the turfgrass and herbicidal activity to the said weeds were visually evaluated based on 0 to 100 scale (0: no phytotoxic effect, 100: completely killed). […]

[6] = system: Large crabgrass; experiment: Herbicidal activity at different growth stages, fresh weight suppression; format: in vivo; settings: .12 kg/ha, fresh weight two weeks after treatment
[7] = post-emergence foliar spray at three leaf stage, 31.2 g/ha
[8] = post-emergence foliar spray at three leaf stage, 62.5 g/ha
[9] = post-emergence foliar spray at three leaf stage, 125 g/ha
[10] = post-emergence foliar spray at three leaf stage, 250 g/ha
[11] = post-emergence foliar spray at three leaf stage, 500 g/ha
[12] = pre-emergence soil treatment, 31.2 g/ha
[13] = pre-emergence soil treatment, 62.5 g/ha
[14] = pre-emergence soil treatment, 125 g/ha
[15] = pre-emergence soil treatment, 250 g/ha
[16] = pre-emergence soil treatment, 500 g/ha

Cc1ccsc1C1=NOC(C)(COCc2c(F)cccc2F)C1 (centres unmarked) [test substance, 5-(2,6-difluorobenzyl)oxymethyl-5-methyl-3-(4-methylthiophen-5-yl)-1,2-isoxazoline]
Visual measurement: Gramineous weed, Foxtail [1, 7]: 0 | Visual measurement: Gramineous weed, Foxtail [1, 8]: 1 | Visual measurement: Gramineous weed, Foxtail [1, 9]: 2 | Visual measurement: Gramineous weed, Foxtail [1, 10]: 5 | Visual measurement: Gramineous weed, Foxtail [1, 11]: 9 | Visual measurement: Gramineous weed, Foxtail [1, 12]: 1 | Visual measurement: Gramineous weed, Foxtail [1, 13]: 3 | Visual measurement: Gramineous weed, Foxtail [1, 14]: 9 | Visual measurement: Gramineous weed, Foxtail [1, 15]: 9 | Visual measurement: Gramineous weed, Foxtail [1, 16]: 10 | Visual measurement: Gramineous weed, Fall panicum [2, 7]: 0 | Visual measurement: Gramineous weed, Fall panicum [2, 8]: 1 | Visual measurement: Gramineous weed, Fall panicum [2, 9]: 3 | Visual measurement: Gramineous weed, Fall panicum [2, 10]: 6 | Visual measurement: Gramineous weed, Fall panicum [2, 11]: 8 | Visual measurement: Gramineous weed, Fall panicum [2, 12]: 5 | Visual measurement: Gramineous weed, Fall panicum [2, 13]: 8 | Visual measurement: Gramineous weed, Fall panicum [2, 14]: 9 | Visual measurement: Gramineous weed, Fall panicum [2, 15]: 9 | Visual measurement: Gramineous weed, Fall panicum [2, 16]: 10 | Visual measurement: Gramineous weed, Large crabgrass [3, 7]: 1 | Visual measurement: Gramineous weed, Large crabgrass [3, 8]: 3 | Visual measurement: Gramineous weed, Large crabgrass [3, 9]: 5 | Visual measurement: Gramineous weed, Large crabgrass [3, 10]: 6 | Visual measurement: Gramineous weed, Large crabgrass [3, 11]: 9 | Visual measurement: Gramineous weed, Large crabgrass [3, 12]: 1 | Visual measurement: Gramineous weed, Large crabgrass [3, 13]: 9 | Visual measurement: Gramineous weed, Large crabgrass [3, 14]: 9 | Visual measurement: Gramineous weed, Large crabgrass [3, 15]: 10 | Visual measurement: Gramineous weed, Large crabgrass [3, 16]: 10 | Visual measurement: Broadleaf weed, Cocklebur [4, 7]: 0 | Visual measurement: Broadleaf weed, Cocklebur [4, 8]: 0 | Visual measurement: Broadleaf weed, Cocklebur [4, 9]: 1 | Visual measurement: Broadleaf weed, Cocklebur [4, 10]: 3 | Visual measurement: Broadleaf weed, Cocklebur [4, 11]: 7 | Visual measurement: Broadleaf weed, Cocklebur [4, 12]: 0 | Visual measurement: Broadleaf weed, Cocklebur [4, 13]: 0 | Visual measurement: Broadleaf weed, Cocklebur [4, 14]: 0 | Visual measurement: Broadleaf weed, Cocklebur [4, 15]: 0 | Visual measurement: Broadleaf weed, Cocklebur [4, 16]: 0 | Control of tested gramineous weeds (in words) [5]: very effectively | Suppression ratio relative to the biomass of the untreated group: Large crabgrass 1 leaf [6]: 95% | Suppression ratio relative to the biomass of the untreated group: Large crabgrass 3 leaf [6]: 23% | Suppression ratio relative to the biomass of the untreated group: Large crabgrass PRE [6]: 84%
